Measured values: patent US20190298661A1, “Transdermal Delivery of Phenethylamine Monoamine Releasers” (priority 2016, published 2019)
pEC50: −log10 of the molar value. Where two headings read alike, the source gives them in different places.

Columns and labels:
[1] = In vitro skin permeation study, vertical static Franz-type diffusion cells, 24 h; assay type: in vitro ADME, human; details: for average amount permeated across dermatomed human skin: liquid base form; for flux / flux with 10% lauric acid versus propylene glycol alone: base 20 mg/mL; for calculated passive flux over 24 hours: base form, 40 mg/ml; for percent permeated through the skin within 24 hours: base; for flux enhancement compared to propylene glycol only group: base 40 mg/mL
Method: To test this prediction, skin permeation studies were conducted with 4-benzylpiperidine, phenmetrazine, and PAL-353 (3-flouroamphetamine) Based on the required dosing and technical capacity of patch technology, one objective was to develop a 24-hour patch. As such, the skin permeation studies were performed for 24 hours using vertical static Franz-type diffusion cells.
The recirculating water bath system was maintained at 37° C. to bring the skin surface temperature to 32° C. Each Franz cell comprised of a donor compartment containing the drug and a receiver compartment containing 1×PBS at pH 7.4 to ensure a diffusion gradient, with human dermatomed skin (described below) clamped between the two compartments. Permeation was followed by detection of drug in the receiver compartment using an alliance HPLC Waters 2695 Separations Module attached to a Waters UV detector system. A prodigy 5 u ODS (2) 150×4.60 mm 5 micron column with mobile phase of acetonitrile and water (0.05% TFA) at a flow rate of 1 mL/min and an injection volume 20 μL, with a retention time of 5.5 min, was detected at 259 nm wavelength. The same permeation and HPLC protocol was followed with 6 Franz cells (n=6) for each condition.
PAL-353 (3-flouroamphetamine) (10 mg/mL in a vehicle suitable for the enhancement technique being used) was placed in the donor compartment of the Franz cell.
The permeation of phenmetrazine and PAL-353 (3-flouroamphetamine) (3-FA) through dermatomed human cadaver skin was further studied using static Franz diffusion cells. Permeated drugs were quantified using a validated HPLC-UV method. The passive permeation of phenmetrazine and 3-FA was evaluated at the concentrations of 10 (phenmetrazine fumarate), 20 (phenmetrazine and 3-FA bases) and 40 (phenmetrazine and 3-FA bases) mg/mL in propylene glycol (PG). Further, the enhancement effect of oleic acid (5% w/w), oleyl alcohol (5% and 10% w/w) and lauric acid (10% w/w) on the permeation of phenmetrazine and 3-FA bases at 20 and 40 mg/mL was investigated.
Chemical permeation enhancers belonging to fatty acid or fatty alcohol group, oleic acid, oleyl alcohol and lauric acid were incorporated to improve the permeation rate of phenmetrazine (40 mg/mL) and 3-flouroamphetamine (20 mg/mL).
Iontophoretic delivery of PAL-353 across dermatomed human skin was also investigated. The donor chamber was filled with 500 μL of PAL-353 solution (10 mg/ml; 54% of saturation solubility) in 10 mM PBS, pH 7.4 containing 25 mM sodium chloride (n=4). The pH of the donor formulation as measured using glass electrode was around 4.0. Anodal iontophoresis was conducted where silver (anode) and silver chloride electrodes (cathode) were placed in the donor chamber and sampling port of the receptor chamber, respectively. It was ensured that there was no contact between the anode and skin in order to avoid skin damage due to high local voltage. The electrodes were then coupled in series to a source of constant current supply (Keithley 2400 Source Meter®, Keithley Instruments Inc., Cleveland, Ohio, USA). A current density of 0.5 mA/cm^2 was applied for 4 h. However, the total duration of the permeation study was 24 h and sampling was done at 0 h, 1 h, 2 h, 3 h, 4 h, 5 h, 6 h, 8 h, 22 h and 24 h.
This study was repeated keeping all the parameters same except that no current was applied (n=4). This group served as the passive control for comparison of the iontophoretic delivery of PAL-353 across human skin. Also, in a separate study, for these two groups, after 4 h, the formulations were removed and current was stopped in the iontophoresis group. Skin resistance was then measured using the procedure explained in section 2.2.3. Results have been presented as mean±SE.
Lag time was calculated as the x-intercept of the extrapolated linear portion of the permeation profiles (cumulative drug permeated/cm^2 plotted against the time). […]

NET = assay: Release activity of phenethylamine analogs, NET; assay type: biochemical; details: ratio of EC50 values
SERT = SERT (Rattus norvegicus, UniProt P31652); assay: Release activity of phenethylamine analogs, SERT; assay type: biochemical
DAT [2] = assay: Release activity of phenethylamine analogs, DAT; assay type: biochemical; details: ratio of EC50 values
DAT [3] = biological target: DAT (Rattus norvegicus, UniProt P23977); assay: Release activity of phenethylamine analogs, DAT; assay type: biochemical
EPIDERM = assay: Skin irritation potential of formulations, EPIDERM 3 dimensional model; details: two formulations reaching therapeutic flux
Method: The skin irritation potential of our formulations were tested using EPIDERM™, which is a 3 dimensional model used to assess skin irritation.

[4] = www.chemspider.com; cited from earlier work
[5] = 100 mg of 2% HPC gel containing 10 mg of drug, 24 h

SERT, sequence (P31652 whole entry): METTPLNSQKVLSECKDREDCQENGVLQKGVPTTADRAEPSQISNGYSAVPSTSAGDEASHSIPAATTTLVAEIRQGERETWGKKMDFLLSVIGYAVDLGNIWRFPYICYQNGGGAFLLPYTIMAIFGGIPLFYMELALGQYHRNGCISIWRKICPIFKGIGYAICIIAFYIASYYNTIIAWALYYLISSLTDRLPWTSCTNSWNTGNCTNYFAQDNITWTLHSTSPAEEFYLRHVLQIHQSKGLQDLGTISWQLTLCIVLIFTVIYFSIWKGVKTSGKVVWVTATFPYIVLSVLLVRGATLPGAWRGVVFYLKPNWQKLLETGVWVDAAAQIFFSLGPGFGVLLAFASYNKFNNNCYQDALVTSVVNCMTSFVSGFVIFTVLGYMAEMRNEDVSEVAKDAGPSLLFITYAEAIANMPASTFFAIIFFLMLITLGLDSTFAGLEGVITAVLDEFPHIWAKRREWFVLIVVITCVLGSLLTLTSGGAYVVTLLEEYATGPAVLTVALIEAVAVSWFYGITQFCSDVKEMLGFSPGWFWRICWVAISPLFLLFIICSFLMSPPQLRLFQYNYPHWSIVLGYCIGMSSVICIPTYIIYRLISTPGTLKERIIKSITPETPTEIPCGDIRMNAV
DAT (Rattus norvegicus, UniProt P23977), sequence (P23977 whole entry): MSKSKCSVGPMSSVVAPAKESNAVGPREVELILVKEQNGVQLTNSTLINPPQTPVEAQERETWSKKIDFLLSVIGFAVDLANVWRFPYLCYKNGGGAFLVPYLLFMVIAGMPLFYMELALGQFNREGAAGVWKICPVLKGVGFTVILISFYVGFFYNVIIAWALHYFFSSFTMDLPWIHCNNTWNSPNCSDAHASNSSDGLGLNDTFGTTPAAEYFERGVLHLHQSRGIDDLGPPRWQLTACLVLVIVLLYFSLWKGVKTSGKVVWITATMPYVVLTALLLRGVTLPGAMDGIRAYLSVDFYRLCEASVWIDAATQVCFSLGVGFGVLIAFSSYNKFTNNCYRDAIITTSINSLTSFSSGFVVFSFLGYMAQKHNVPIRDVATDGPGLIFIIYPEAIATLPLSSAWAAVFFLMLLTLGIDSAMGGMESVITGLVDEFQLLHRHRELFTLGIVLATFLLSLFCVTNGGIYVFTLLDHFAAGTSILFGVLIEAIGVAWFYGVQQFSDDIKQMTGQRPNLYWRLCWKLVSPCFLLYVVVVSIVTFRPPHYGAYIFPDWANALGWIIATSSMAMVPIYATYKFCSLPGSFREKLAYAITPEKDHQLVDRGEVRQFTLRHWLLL

In the case of c1ccc(CC2CCNCC2)cc1 [4-benzylpiperidine, 4-Benzylpiperidine], the “average amount permeated across human dermatomed skin” value [1, 5] was 1824±425 μg/cm^2, the “share of drug permeated across human dermatomed skin” value [1, 5] was “about 18%” and the “average amount permeated across dermatomed human skin” value ([1]; 100 μL of 1 mg/ml in PG, passive, 24 h) was 33±8 μg/cm^2. The “average amount permeated across dermatomed human skin” value ([1]; 100 μL of 10 mg/ml in PG, passive, 24 h) was 288±71 μg/cm^2.
For CC(N)Cc1ccc(Cl)cc1 (centres unmarked) [PAL-24], the SERT/NET (NET) was 0.9, the pEC50 (SERT) was 7.67 and the SERT/DA (DAT [2]) was 0.3.
COc1cccc(CC(C)N)c1 (centres unmarked) [PAL-161] showed an SERT/NET (NET) of 5.7, a pEC50 (SERT) of 6.48 and an SERT/DA (DAT [2]) of 3.2.
With COc1ccc(CC(C)N)cc1 (centres unmarked) [PAL-162] the SERT/NET (NET) was 0.4, the pEC50 (SERT) was 7.20 and the SERT/DA (DAT [2]) was 0.1.
CC(N)Cc1ccc(F)cc1 (centres unmarked) [PAL-303] gave an SERT/NET (NET) of 33.5, a pEC50 (SERT) of 6.03 and an SERT/DA (DAT [2]) of 18.2.
CC(N)Cc1cccc(Cl)c1 (centres unmarked) [PAL-304] showed an SERT/NET (NET) of 12.8, a pEC50 (SERT; read-out: EC50 SERT release) of 6.92 and an SERT/DA (DAT [2]) of 10.2. The pEC50 (DAT [3]) was 7.93.
Work on CC(N)Cc1ccccc1C(F)(F)F (centres unmarked) [PAL-307] yielded a pEC50 (SERT) of under 5.00.
CC(N)Cc1ccc(OC(F)(F)F)cc1 (centres unmarked) [PAL-309] gave an SERT/NET (NET) of 0.2, a pEC50 (SERT) of 7.09 and an SERT/DA (DAT [2]) of 0.0.
Cc1ccc(CC(C)N)cc1 (centres unmarked) [PAL-313] gave an SERT/NET (NET) of 2.4, a pEC50 (SERT) of 7.27 and an SERT/DA (DAT [2]) of 1.2.
Molecule Cc1cccc(CC(C)N)c1 (centres unmarked) [PAL-314] has an SERT/NET (NET) of 11.9, a pEC50 (SERT) of 6.66 and an SERT/DA (DAT [2]) of 6.5.
Cc1ccccc1CC(C)N (centres unmarked) [PAL-315] showed an SERT/NET (NET) of 26.3, a pEC50 (SERT) of 6.01 and an SERT/DA (DAT [2]) of 7.7.
In the case of CC(N)Cc1ccc(C(C)C)cc1 (centres unmarked) [PAL-334], the pEC50 (SERT) was 7.10.
In the case of CCc1ccc(CC(C)N)cc1 (centres unmarked) [PAL-335], the SERT/NET (NET) was 0.3, the pEC50 (SERT) was 7.44 and the SERT/DA (DAT [2]) was 0.1.
For CC(N)Cc1cccc(F)c1 (centres unmarked) [PAL-353, 3-fluoroamphetamine], the SERT/NET (NET) was 120, the pEC50 (SERT) was 5.71 and the “predicted skin irritation of formulations reaching therapeutic flux” value (EPIDERM) was “irritant”. The “passive permeation over 24 h” value ([1]; 10 mg/ml in 10 mM PBS, no current) was 3.94±0.53 μg/cm^2, the “flux enhancement compared to PG alone” value ([1]; 20 mg/mL, 5% w/w oleic acid, not significant) was about 40% and the “flux as percent of the control group” value ([1]; 20 mg/mL, 5% w/w oleyl alcohol in PG) was 389%. The “flux as percent of the control group” value ([1]; 20 mg/mL, 10% w/w oleyl alcohol in PG) was 370%, the “increase of cumulative drug permeation by iontophoresis versus passive” value ([1]; PBS, 24 h period) was 548 fold and the “enhancement of skin permeation by ablative laser versus passive” value ([1]; PG, 24 h) was 508 times. For the same molecule, the lag time ([1]; anodal iontophoresis, x-intercept of linear portion of permeation profile) was “around 3.5 h”, the flux ([1]; 5% oleic acid in PG) was 109.8±17.94 μg/cm^2/h and the flux ([1]; 10% oleyl alcohol in PG) was 292.0±31.70 μg/cm^2/h. For the same molecule, the “flux with 10% lauric acid versus propylene glycol alone” value ([1]; 10% w/w lauric acid in PG, listed as 3-FA base) was “did not show significant difference”, the “flux with 10% lauric acid versus propylene glycol alone” value ([1]; 10% w/w lauric acid in PG, listed as 3-flouroamphetamine) was “did not impact the flux at all” and the “calculated passive flux over 24 hours” value ([1]; passive) was 3784.62±173.52 μg/cm^2. The “percent permeated through the skin within 24 hours” value ([1]; 20 mg/mL in PG, passive) was 41.4±1.18%, the “percent permeated through the skin within 24 hours” value ([1]; 40 mg/mL in PG, passive) was 74.45±3.43% and the “enhancement by maltose microneedles versus control” value ([1]; hydrochloride in PG, 24 h) was 7 fold. For the same molecule, the “permeation after 24 h, skin pre-treated with maltose microneedles” value ([1]; hydrochloride, solution in PG) was 7.35±4.87 μg/cm^2, the “passive permeation after 24 h” value ([1]; hydrochloride, solution in propylene glycol (control)) was 1.03±0.17 μg/cm^2 and the “passive permeation in PBS compared to PG” value ([1]; passive) was “approximately four”. For the same molecule, the “permeation over 24 hours with anodal iontophoresis” value ([1]; salt form (hydrochloride), 10 mg/ml in PBS, 0.5 mA/cm^2 for 4 h, 24 h) was 2159.43±301.14 μg/cm^2, the “permeation after skin microporation by ablative laser” value ([1]; solution in PG, P.L.E.A.S.E. laser, 24 h) was 523.24±86.79 μg/cm^2 and the SERT/DA (DAT [2]) was 80.
For CC(N)Cc1cccc(C(F)(F)F)c1 (centres unmarked) [PAL-677], the SERT/NET (NET) was 0.6, the pEC50 (SERT) was 6.98 and the SERT/DA (DAT [2]) was 0.1.
With CCc1cccc(CC(C)N)c1 (centres unmarked) [PAL-1386] the SERT/NET (NET) was 1.4, the pEC50 (SERT) was 6.80 and the SERT/DA (DAT [2]) was 1.3.
For C[C@H]1[C@H](c2ccccc2)OCCN1C [phendimetrazine], the “log P” value [4] is listed as 2.17.
With CC1NCCOC1c1ccccc1 (centres unmarked) [phenmetrazine, Phenmetrazine, reference compound] the “predicted skin irritation of formulations reaching therapeutic flux” value (EPIDERM) was “irritant”, the “flux increase compared to group without enhancer” value ([1]; 40 mg/mL, 5% w/w oleyl alcohol in PG) was about 10 folds and the “efficiency of oleyl alcohol as permeation enhancer over oleic acid” value ([1]; 40 mg/mL, both enhancers at 5% w/w) was 53.4%. The “flux enhancement by oleyl alcohol compared to lauric acid” value ([1]; 40 mg/mL, irrespective of oleyl alcohol concentration) was about 240%, the “flux enhancement compared to propylene glycol only group” value ([1]; 5% w/w oleic acid in PG) was 7.6 fold and the “flux enhancement compared to propylene glycol only group” value ([1]; 10% w/w lauric acid in PG) was 3.4 fold. The “flux enhancement compared to propylene glycol only group” value ([1]; 10% w/w oleyl alcohol in PG) was about 10 fold, the “flux enhancement compared to propylene glycol only group” value ([1]; 10% w/w oleyl alcohol in PG, listed as phenmetrazine base) was 11.4 fold and the “calculated passive flux over 24 hours” value ([1]; passive) was 359.05±82.36 μg/cm^2. The “percent permeated through the skin within 24 hours” value ([1]; 20 mg/mL in PG, passive) was 1.86±0.41% and the “percent permeated through the skin within 24 hours” value ([1]; 40 mg/mL in PG, passive) was 5.74±1.32%.
For “Phenmetrazine fumarate [reference compound]”, the “passive permeation over 24 hours” value ([1]; 10 mg/mL in propylene glycol) was “no permeation”.
